{"source": "patent US20150050299A1", "about": "“METHODS FOR ENHANCING IMMUNE RESPONSE” (priority 2010, published 2015)", "key": {"human TLR5": {"target": "human TLR5 (Homo sapiens, UniProt O60602)", "sequence (O60602 21-858)": "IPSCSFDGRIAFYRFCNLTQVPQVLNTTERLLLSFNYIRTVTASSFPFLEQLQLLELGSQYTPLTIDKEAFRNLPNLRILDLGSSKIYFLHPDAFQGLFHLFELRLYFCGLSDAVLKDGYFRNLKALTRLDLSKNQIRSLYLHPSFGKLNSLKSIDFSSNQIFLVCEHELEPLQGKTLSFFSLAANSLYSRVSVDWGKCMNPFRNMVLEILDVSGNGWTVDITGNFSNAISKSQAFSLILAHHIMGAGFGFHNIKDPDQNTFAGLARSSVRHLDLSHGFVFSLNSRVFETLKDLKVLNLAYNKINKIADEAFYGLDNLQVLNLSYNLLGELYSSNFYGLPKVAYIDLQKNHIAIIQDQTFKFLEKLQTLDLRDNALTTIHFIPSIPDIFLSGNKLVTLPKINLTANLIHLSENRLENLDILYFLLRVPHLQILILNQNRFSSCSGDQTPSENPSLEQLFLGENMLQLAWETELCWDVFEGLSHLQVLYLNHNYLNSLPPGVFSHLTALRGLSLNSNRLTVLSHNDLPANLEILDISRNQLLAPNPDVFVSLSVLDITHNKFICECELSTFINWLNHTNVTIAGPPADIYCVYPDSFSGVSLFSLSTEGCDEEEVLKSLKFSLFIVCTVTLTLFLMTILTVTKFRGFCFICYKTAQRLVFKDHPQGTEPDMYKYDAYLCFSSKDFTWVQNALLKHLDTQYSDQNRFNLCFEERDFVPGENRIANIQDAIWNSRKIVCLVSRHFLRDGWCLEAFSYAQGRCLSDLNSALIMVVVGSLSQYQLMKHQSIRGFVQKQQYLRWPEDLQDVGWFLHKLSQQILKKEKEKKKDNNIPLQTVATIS", "experiment": "Toll-Like Receptor (TLR) screening assay, TLR5", "assay_type": "cell-based", "conditions": "10 μM"}, "[1]": {"system": "cultured cancer cell types (including MDA-MB-231, PC-3, A375 and SK-OV-3 among others)", "experiment": "activity against cultured cancer cells in combination with DFMO", "assay_type": "cell-based", "source_text": "Cancer cells can circumvent the ability of drugs such as α-difluoromethylornithine (DFMO) based on inhibition of polyamine biosynthesis, from completely depleting their internal polyamines by the importation of these molecules from external sources. […] The resulting novel two-drug combination therapy targeting cellular polyamine metabolism has shown exceptional efficacy against cutaneous squamous cell carcinomas (SCCs) in a transgenic ornithine decarboxylase (ODC) mouse model developed by us for the study of skin cancer. […] The availability of a potent polyamine transport inhibitor allows, for the first time, for a real test of the hypothesis that starving cells of polyamines will lead to objective clinical response. This therapy is molecularly-targeted, relatively nontoxic at the proposed dose, and consists of both a very well-characterized drug and a member of a novel chemical class."}, "[2]": {"system": "squamous cell carcinomas (SCCs)", "assay_type": "in vivo", "protocol": "The combination therapy of polyamine biosynthesis/uptake inhibition was tested against the K6/ODC transgenic mouse murine squamous cell carcinoma (SCC) model recently described.^98 The K6/ODC model was developed to assess whether ODC overexpression was a contributing cause, or an effect of malignant transformation. […] While most skin tumorigenesis models yielded benign squamous papillomas as the predominant tumor type, when the K6/ODC transgene was expressed on the FVB/N strain background, the majority of tumors that developed were aggressive squamous cell carcinomas. These SCCs appeared as early as 5 weeks after treatment and in high multiplicities (up to four tumors per mouse), making this a very efficient model for SCC induction. Using this model, we were thus able to conclude that over-expression of ODC is a sufficient condition for tumor promotion in mouse skin.^99\nWe conducted an in vivo anti-tumor trial of DFMO combined with either the D-C16-acyl Lys-spm conjugate AMXT 1501 (FIG. 4) or the L-C16-alkyl AMXT 1569 analog (FIG. 5) in the K6/ODC SCC model.\nThe concentration of AMXT 1501 was 14 μg/ml, or an average daily dose of ˜50-65 μg (equivalent to ˜3 mg/kg/d). […] It is expected that great improvements in the oral bioavailability of AMXT 1501 would result from insightful drug formulation."}, "human TLR4": {"target": "human TLR4 (Homo sapiens, UniProt O00206+Q9Y6Y9)", "sequence (O00206 24-839)": "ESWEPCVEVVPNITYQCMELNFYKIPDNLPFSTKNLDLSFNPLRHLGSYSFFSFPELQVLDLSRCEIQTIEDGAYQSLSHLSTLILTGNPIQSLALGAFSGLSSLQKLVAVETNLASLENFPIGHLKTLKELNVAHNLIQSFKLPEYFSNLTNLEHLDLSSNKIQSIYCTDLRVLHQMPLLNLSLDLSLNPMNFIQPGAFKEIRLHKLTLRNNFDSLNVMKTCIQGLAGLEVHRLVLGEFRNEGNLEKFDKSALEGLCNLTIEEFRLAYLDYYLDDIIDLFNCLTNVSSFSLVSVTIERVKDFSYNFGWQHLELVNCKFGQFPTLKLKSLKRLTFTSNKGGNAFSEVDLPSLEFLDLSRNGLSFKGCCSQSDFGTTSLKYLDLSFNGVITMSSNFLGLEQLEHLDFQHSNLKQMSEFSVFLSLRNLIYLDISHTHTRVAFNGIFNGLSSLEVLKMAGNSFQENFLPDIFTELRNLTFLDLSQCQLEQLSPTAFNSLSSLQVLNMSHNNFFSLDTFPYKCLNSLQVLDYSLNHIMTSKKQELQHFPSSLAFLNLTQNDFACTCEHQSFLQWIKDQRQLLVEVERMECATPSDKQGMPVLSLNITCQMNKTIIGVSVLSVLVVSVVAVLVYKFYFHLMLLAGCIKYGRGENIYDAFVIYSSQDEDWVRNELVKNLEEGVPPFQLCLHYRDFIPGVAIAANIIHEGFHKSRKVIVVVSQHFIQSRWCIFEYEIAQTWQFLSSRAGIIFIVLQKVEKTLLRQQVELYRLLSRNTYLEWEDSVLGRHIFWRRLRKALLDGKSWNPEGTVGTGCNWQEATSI", "sequence (Q9Y6Y9 17-160 limits assumed)": "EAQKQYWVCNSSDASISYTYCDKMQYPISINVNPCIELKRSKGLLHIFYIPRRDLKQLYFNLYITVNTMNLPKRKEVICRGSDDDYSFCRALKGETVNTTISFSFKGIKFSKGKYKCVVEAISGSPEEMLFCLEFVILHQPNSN", "experiment": "Toll-Like Receptor (TLR) screening assay, TLR4", "assay_type": "cell-based", "conditions": "10 μM; control LPS"}, "human TLR8": {"target": "T1, human TLR8 (Homo sapiens, UniProt Q9NR97)", "T1 sequence (Q9NR97 27-1041)": "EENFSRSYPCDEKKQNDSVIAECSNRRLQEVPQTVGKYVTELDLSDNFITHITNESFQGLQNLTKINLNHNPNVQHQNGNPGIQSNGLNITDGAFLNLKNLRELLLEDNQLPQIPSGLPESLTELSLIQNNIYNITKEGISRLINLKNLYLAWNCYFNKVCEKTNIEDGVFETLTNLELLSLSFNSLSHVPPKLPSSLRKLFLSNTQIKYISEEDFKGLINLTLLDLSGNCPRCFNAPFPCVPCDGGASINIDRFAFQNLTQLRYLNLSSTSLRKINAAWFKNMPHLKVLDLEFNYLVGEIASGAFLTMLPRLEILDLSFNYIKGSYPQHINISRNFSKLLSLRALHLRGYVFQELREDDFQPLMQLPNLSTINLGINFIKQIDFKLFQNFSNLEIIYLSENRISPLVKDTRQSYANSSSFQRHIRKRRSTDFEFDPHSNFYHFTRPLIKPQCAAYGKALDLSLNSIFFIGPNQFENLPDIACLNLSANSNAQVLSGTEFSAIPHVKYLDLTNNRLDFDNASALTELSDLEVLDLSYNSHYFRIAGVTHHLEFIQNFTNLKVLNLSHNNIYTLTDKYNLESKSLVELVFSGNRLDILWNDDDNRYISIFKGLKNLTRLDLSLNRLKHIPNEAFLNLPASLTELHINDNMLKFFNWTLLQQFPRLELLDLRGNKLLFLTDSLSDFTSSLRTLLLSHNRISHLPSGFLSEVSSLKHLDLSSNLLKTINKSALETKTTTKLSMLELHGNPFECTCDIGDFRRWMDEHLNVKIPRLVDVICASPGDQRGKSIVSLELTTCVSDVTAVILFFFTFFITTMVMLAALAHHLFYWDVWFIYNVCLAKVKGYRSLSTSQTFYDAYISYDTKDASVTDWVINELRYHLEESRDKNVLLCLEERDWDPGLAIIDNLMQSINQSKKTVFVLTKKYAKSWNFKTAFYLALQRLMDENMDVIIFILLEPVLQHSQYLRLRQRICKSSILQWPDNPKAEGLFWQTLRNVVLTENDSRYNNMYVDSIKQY", "experiment": "Toll-Like Receptor (TLR) screening assay, TLR8", "assay_type": "cell-based", "conditions": "10 μM"}}}
{"smiles": "CCCCCCCCCCCCCCCC(=O)NCCCC[C@@H](N)C(=O)NCCCNCCCCNCCCN", "note": "[AMXT 1501, D-Lys(C16acyl)-Spm]", "values": [{"measurement": "activity on TLR5", "setting": "human TLR5", "value": "no significant activity"}, {"measurement": "nature of cell culture effects", "setting": "[1]", "value": "cytostatic and not cytotoxic"}, {"measurement": "potency compared with AMXT 1426", "setting": "[1]; in combination with DFMO", "value": "several orders of magnitude higher potency"}, {"measurement": "anti-tumor response to single agent", "setting": "[2]; agent alone", "value": "did not reduce tumor growth"}, {"measurement": "potency to inhibit tumor growth in combination with DFMO, AMXT 1501 versus AMXT 1569", "setting": "[2]; combined with DFMO", "value": "slightly better results"}, {"measurement": "stimulatory effect on TLR4", "setting": "human TLR4", "value": "16 % of control"}, {"measurement": "activity on TLR8", "setting": "human TLR8", "value": "no significant activity"}]}
